In patent US20060034856A1, “Epha2 antigen t epitopes” (priority 2002, published 2006):
Ends that are not written are not given here.

B1: p58 peptide of EphA2 (peptide)
peptide: IMNDMPIYM
notes: Synthetic 9-mer fragment of the human EphA2 antigen (SYNT:EM), purity >85%
B2: p883 peptide of EphA2 (peptide)
peptide: TLADFDPRV
notes: Synthetic 9-mer fragment of the human EphA2 antigen
B3: p61Y variant peptide (peptide)
peptide: YMPIYMYSV
notes: Variant of p61 in which the N-terminal aspartic acid is replaced by tyrosine
B4: p546 peptide of EphA2 (peptide)
peptide: VLLLVLAGV
notes: as for B2
B5: p550 peptide of EphA2 (peptide)
peptide: VLAGVGFFI
notes: as for B2

Tests used:
[1] = target: T1, HLA-A*0201 (Homo sapiens, UniProt P04439, D140Y/D185E/D98H/E176V/E277Q/G131W/G231S/I119V/I121R/I166T/I218V/L300P/L318F/N151K/N90K/P208A/P217A/Q86G/Q94H/R138H/R169H/T345S); conditions: ratio of peptide to reference peptide (HIVpol 589) concentration inducing 20% of fluorescence of 100 μM reference; T2 cells; lower RA = stronger binding; mean of at least three experiments
Protocol: (§1) The immunogenicity of these peptides was evaluated by measuring their affinity for HLA-A*0201. This is defined by two parameters: the relative affinity (RA) which reflects the ability of the peptides to bind to HLA-A*0201, and the rate of dissociation of the HLA-A*0201/peptide complexes (DC50), which reflects their stability.
Human T2 cells (Firat et al., Eur. J. Immunol., 29, 3112, 1999) (3×10^5 cells/ml), which are deficient in TAP transporters, are incubated at 37° C. for 16 hours with various concentrations (100 μM, 10 μM, 1 μM, 0.1 μM) of each test peptide, in serum-free RPMI 1640 medium supplemented with 100 ng/ml of human β2-microglobulin. Next, they are washed twice and labeled with the monoclonal antibody BB7.2 (Parham et al., Hum. Immunol., 3, 4, 277-299, 1981) which is specific for the HLA-A*0201 molecule, and then with a goat anti-mouse Ig antibody coupled to fluorescein isothiocyanate (FITC).
These cells are then analyzed by flow cytometry. […] The relative affinity (RA) is defined as the ratio of the concentration of each peptide that induces 20% of the fluorescence obtained with 100 μM of the reference peptide, to the concentration of the reference peptide that induces 20% of the fluorescence obtained with 100 μM of said reference peptide. […] The mean RA for each peptide is determined from at least three independent experiments.

[2] = target: T1, HLA-A*0201; assay: Stability of HLA-A*0201/peptide complexes (DC50) on T2 cells; format: binding; set-up: endogenous in cells; host or cells: human T2 cells (TAP-deficient); conditions: time for loss of 50% of HLA-A*0201/peptide complexes stabilized at t=0, 100 μM peptide, 37° C.
Protocol: as §1, with “stability. The high-affinity peptides (RA<5 and DC50>2 hrs) are potentially immunogenic, unlike the low-affinity peptides (RA>5 and DC50<2 hrs).” for “stability.”
T2 cells (10^6/ml) are incubated overnight at 37° C. with 100 μM of each test peptide, in serum-free RPMI 1640 medium supplemented with 100 ng/ml of human β2-microglobulin. Next, they are washed four times in order to remove the free peptides, incubated with BREFELDIN A (Sigma; 10 μg/ml) for one hour in order to prevent the expression at their surface of newly synthesized HLA-A*0201 molecules, washed, and incubated at 37° C. for 0, 2, 4, 6 or 8 hours in the presence of BREFELDIN A (0.5 μg/ml). For each incubation time, the cells are then labeled, as indicated above, with the BB7.2 antibody and analyzed by flow cytometry in order to evaluate the amount of peptide/HLA-A*0201 complex present at their surface. This amount is evaluated by means of the formula: (mean fluorescence of the T2 cells preincubated with the peptide−mean fluorescence of the T2 cells treated under similar conditions in the absence of peptide). The DC50 (dissociation complex: DC) is defined as being the time (in hours) required for the loss of 50% of the HLA-A*0201/peptide complexes which are stabilized at t=0.

[3] = target: T2, HLA-A*0201 molecule on human T2 cells (human); assay: T2 cell HLA-A*0201 stabilisation, flow cytometry with BB7.2; peptide concentration giving 20% of reference fluorescence, relative to HIVpol 589
T2 construct: MHC class I molecule on T2 cells

Molecule	RA (relative affinity) [1]	DC50 [2] [h]	RA (relative affinity) [3]
DMPIYMYSV [p61]	>10		
IMNDMPIYM [p58, IMNDMPIYM]	1	4	
TLADFDPRV [p883, TLADFDPRV]		2 to 4	
VLAGVGFFI [p550, VLAGVGFFI]	1	4 to 6	
VLLLVLAGV [p546, VLLLVLAGV]	1.4	4 to 6	
YMPIYMYSV [p61Y, YMPIYMYSV]	1.5		
B1			1 ratio to reference peptide
B2			2.2 ratio to reference peptide
B3			1.5 ratio to reference peptide
B4			1.4 ratio to reference peptide
B5			1 ratio to reference peptide
